# What was measured:
# [1] = cited from earlier work
# Candida microorganism = conditions: in vitro and in vivo; cited from earlier work
# [2] = test system: Candida albicans IFM40009; assay: Persistence of orally administered Candida microorganism in the intestinal tract of mice (viable cell count in cecum and colon); type: in vivo; conditions: mouse, 100 mg/animal oral once a day for two weeks, 1 week after forcible administration of Candida suspension
# Text: A Candida microorganism was given forcibly via an oral administration to a mouse on diet with the oligosacchride containing α-galactosyl obtained in EXAMPLE 3 to test the persistence of the Candida microorganism in an intestinal tract, whereby assessing the anti-candida effect of the oligosacchride containing α-galactosyl.
# (Methods) A test mouse was a 4-week old male mouse of Crj:CD-1 (ICR) line (NIPPON CHARLES RIVER). A preliminary housing was provided to the animal for 1 week while being allowed to access a basal diet and a distilled water ad libitum. The basal diet was a solid chow for mice (MF: ORIENTAL YEAST). After the preliminary housing, the basal diet and the distilled water were given ad libitum continuously, and a control group fed with a sucrose, a positive control group fed with a raffinose, and a treatment group fed with an oligosacchride containing α-galactosyl were provided (5 animals per group) to conduct a forcible oral administration at 100 mg/animal via an oral gavage for two weeks on a once-a-day basis. […]
# The viable cell of the Candida microorganism was counted by applying a Candida microorganism suspension diluted appropriately with a physiological saline onto a Candida GS (EIKEN KAGAKU) plate medium and incubating at 37° C. for 42 to 48 hours followed by counting the colonies formed. […]
# [3] = molecular target: toxin produced by Clostridium difficile (Clostridioides difficile, UniProt P16154); conditions: cited from earlier work
# pathogenic E.coli 0157 = conditions: cited from earlier work
smiles,measurement,setting,value
OC[C@H]1O[C@H](OC[C@H]2O[C@H](O[C@]3(CO)O[C@H](CO)[C@@H](O)[C@@H]3O)[C@H](O)[C@@H](O)[C@@H]2O)[C@H](O)[C@@H](O)[C@H]1O [raffinose],effect on atopic dermatitis,[1]; in vivo,exerted an effect
same,"side effects observed with an antifungal agent (transient exacerbation of rash, digestive organ signs)",[1]; oral administration,does not cause side effects
same,effects on a Candida microorganism,Candida microorganism,inhibitory and eradicative effects
same,viable cell count of Candida microorganism in the cecum,[2],not changed
same,viable cell count of Candida microorganism in the colon,[2]; compared with sucrose control group,lower
"OC[C@H]1O[C@H](O[C@@H]2[C@@H](O)[C@@H](O)O[C@H](CO)[C@@H]2O)[C@H](O)[C@@H](O)[C@H]1O [α-1,3-galactobiose]",effect on toxin produced by Clostridium difficile,[3],neutralizing effect
"OC[C@H]1O[C@H](O[C@@H]2[C@H](O)[C@@H](O)C(O)O[C@@H]2CO)[C@H](O)[C@@H](O)[C@H]1O (stereo partly drawn) [α-1,4 galactobiose]",effect on pathogenic E.coli 0157,pathogenic E.coli 0157,inhibitory and therapeutic effect
